Measurements published in patent US20200187507A1, “INOCULANTS INCLUDING PLANT GROWTH PRODUCING RHIZOBACTERIA (PGPR) AND INSECTIDES FOR PROMOTING PLANT GROWTH AND HEALTH” (Auburn University, priority 2018, published 2020).

Key:
[1] = tested on: Bacillus pumilus AP 7; assay: Bacterial strains and insecticide compatibility (mixed in tubes, CFU counts); assay type: cell-based; details: Example 1; mixed for 2 wk at label rates
Method: The strains of Blend 20, each with a minimum concentration of 1×10^8 CFU per ml were individually evaluated for their compatibility with commonly used liquid insecticides. The strains were evaluated individually to make recovery of each bacterium apparent, as the colony morphologies are similar. Freshly prepared bacteria stock solutions were evaluated for their ability to survive being ‘tank’ mixed with insecticides in 50 ml centrifuge tubes with three different insecticides mixed together for 1 h, 24 h, and 1 wk, and 2 wk at 25 s ° C. under ambient light. The bacteria were evaluated for compatibility with insecticides which included three chemical groups: neonicotinoids, phenylpyrazoles, and pyrethroids. The pesticides evaluated were bifenthrin (Talstar Pro, FMC Corporation, Philadelphia, Pa.), fipronil (Termidor SC, BASF Corporation, Florham Park, N.J.), imidacloprid (Merit 2F, Bayer, Research Triangle Park, N.C.). […] Bifenthrin and fipronil were evaluated at high and low label rates. […] Bacterial populations (number of colony forming units [CFU]) in the suspensions were determined by plating 50 μl of the 10^−5 serial dilutions onto three TSA plates, incubating plates for 24 h and then counting the number of bacterial colonies on each plate.
Bacterial strains from multiple genera with known populations (minimum of 1×10^8 colony forming units (CFU)/ml (0.03 oz)) were evaluated individually for their compatibility with commonly turfgrass insecticides. […]
The strains that comprise Blend 20, each with aminimum concentration of 1×10^8 CFU per ml, were individually evaluated for their compatibility with commonly used liquid neonicotinoid insecticides. The strains within the blend were evaluated individually to make recovery of each bacterium apparent, as the colony morphologies are similar. Freshly prepared bacteria stock solutions were evaluated for survival when mixed with three different insecticides mixed in separate 50 mL centrifuge tubes for 1 and 24 h, and 1 and 2 wk at 25° C. under ambient light. […]

[2] = tested on: Bacillus sphaericus AP 282; assay: as above; assay type: cell-based; details: Example 1; mixed for 2 wk at label rates
Method: (§1) The strains of Blend 20, each with a minimum concentration of 1×10^8 CFU per ml were individually evaluated for their compatibility with commonly used liquid insecticides. The strains were evaluated individually to make recovery of each bacterium apparent, as the colony morphologies are similar. Freshly prepared bacteria stock solutions were evaluated for their ability to survive being ‘tank’ mixed with insecticides in 50 ml centrifuge tubes with three different insecticides mixed together for 1 h, 24 h, and 1 wk, and 2 wk at 25 s ° C. under ambient light. The bacteria were evaluated for compatibility with insecticides which included three chemical groups: neonicotinoids, phenylpyrazoles, and pyrethroids. The pesticides evaluated were bifenthrin (Talstar Pro, FMC Corporation, Philadelphia, Pa.), fipronil (Termidor SC, BASF Corporation, Florham Park, N.J.), imidacloprid (Merit 2F, Bayer, Research Triangle Park, N.C.). While Termidor SC is not used on golf courses, it was selected for convenience because the active ingredient (Fipronil) is formulated as a granular product and widely used for mole cricket management (24). Bacteria and pesticide solutions were prepared based on the label recommendations for volume of area covered (bifenthrin, imidacloprid) or amount of active ingredient per volume needed (fipronil). Bifenthrin and fipronil were evaluated at high and low label rates. Bifenthrin was mixed at a rate of 29.6 and 14.8 ml per 92.9 m^2 (7.9% active ingredient, 302 g per 3,785 ml). Imidacloprid was mixed a rate of 17 ml per 92.9 m^2 (21.4%, 907 g per 3,785 ml). Fipronil was prepared at 47.3 (0.125% dilution) and 23.65 ml (0.06% dilution) per 3,785 ml (9.1% active ingredient, 363 g per 3,785 ml). After the allotted time, the centrifuge tubes were vigorously shaken to evenly distribute bacterial cells before serial 10-fold dilutions. Serial dilutions were made of each bacterial suspension into sterile water blanks to a final dilution of 10^−5. Bacterial populations (number of colony forming units [CFU]) in the suspensions were determined by plating 50 μl of the 10^−5 serial dilutions onto three TSA plates, incubating plates for 24 h and then counting the number of bacterial colonies on each plate.
(§2) The strains that comprise Blend 20, each with aminimum concentration of 1×10^8 CFU per ml, were individually evaluated for their compatibility with commonly used liquid neonicotinoid insecticides. The strains within the blend were evaluated individually to make recovery of each bacterium apparent, as the colony morphologies are similar. Freshly prepared bacteria stock solutions were evaluated for survival when mixed with three different insecticides mixed in separate 50 mL centrifuge tubes for 1 and 24 h, and 1 and 2 wk at 25° C. under ambient light. Bacteria and pesticide solutions were prepared based on the label recommendations for volume of area covered. The pesticides evaluated were imidacloprid (Ferti-lome® Tree and Shrub Systemic Insect Drench, 1.47% active ingredient, Voluntary Purchasing Groups, Inc., Bonham, Tex., USA), imidacloprid (Merit® 2F, 21.4% active ingredient, Bayer Environmental Sciences, Research Triangle Park, N.C., USA), and imidacloprid and clothianidin (Bayer Advanced 12 Month Tree and Shrub Protect and Feed II®, 0.74% imidacloprid and 0.37% clothianidin active ingredient, Bayer Environmental Sciences). The Ferti-lome® product was mixed at a rate of 89 mL of product per 3785 mL. Merit® 2F was mixed at a rate of 17 mL of product per 92.9 m^2. Bayer Advanced Tree and Shrub Protect and Feed II® was mixed at a rate of 89 mL of product per 3785 mL.
(§3) After the allotted time, the centrifuge tubes were vigorously shaken to evenly distribute bacterial cells before completing five serial 10-fold dilutions. Serial dilutions were made of each bacterial suspension into sterile water blanks to a final dilution of 10^−5. […]

[3] = tested on: Bacillus pumilus AP 18; assay: as above; assay type: cell-based; details: Example 1; mixed for 2 wk at label rates
Method: as §1, §2, §3

[4] = tested on: tawny mole crickets; assay: Field plots: tawny mole cricket damage ratings (Cobb and Mack); assay type: in vivo, Neoscapteriscus vicinus Scudder; details: scale 0-9
Method: On 26 Mar. 2017 field plots were established at the Auburn University Turfgrass Research Unit, Auburn, Ala. over hybrid and common bermudagrass tawny mole cricket infested areas in a Marvyn loamy sand. Plots were 3 m×2 m with at least 2 m separating plots. Field plots were assessed for mole cricket damage based on the rating system of Cobb and Mack (26). A 1 m×1 m frame divided into a grid with 9 subsections was used to score the plots on a scale of 0-9, where 0 indicates no damage and 9 indicates activity in each section. After the initial assessment, plots were assigned to a treatment group based on damage ratings. […] Damage assessments were taken from seven locations (center, top left, top right, bottom left, bottom right, middle left, and middle right), with one location sampled during each damage assessment period for all treatments. The experiment evaluated four treatments, PGPR-treated (Blend 20), bifenthrin-treated, PGPR+bifenthrin-treated, and non-treated control. On 27 Mar. 2017 (Day 0) and 23 April (Day 27) plots were treated with a backpack sprayer. Bacteria-treated plots received 3 L (500 ml/m^2) freshly-prepared aqueous bacterial suspension of 1×10^7 CFU per ml. Bifenthrin-treated plots were treated at a rate of 29.6 ml per 92.9 m^2. The sprayer applied 244 ml of this mixture per plot. PGPR+ bifenthrin plots were treated with the 3 L of bacteria and 244 ml of bifenthrin mixed together in the same tank. The non-treated plots were treated with 3 L of distilled water coincident with treatment of the other plots. After treating, the plots were hand watered with 76.2 L of water (1.27 cm) to move the treatments into the root zone. The experiment was replicated six times for each treatment.
Top growth (fresh and dry mass) in the cylinder trials were analyzed separately using repeated measures of multivariate analysis of covariance (MANCOVA) due to trial being a significant factor (P<0.05, JMP Version 13. SAS Institute Inc., Cary, N.C., 1989-2007). Root fresh and dry mass, and length were analyzed using orthogonal contrasts (P<0.05, JMP Version 13. SAS Institute Inc., Cary, N.C., 1989-2007). The number of mole crickets recovered and mole cricket weights from each treatment were used as covariants. Mole cricket weights were analyzed using analysis of variance (ANOVA), Student's t-test. The number of mole crickets recovered and mole cricket weights within treatments were not significant in either PVC arena trial. For the field trial, LSMeans, Student's t-Test (LSD, P<0.05) was used to compare each sampling period's mole cricket damage ratings.

[5] = tested on: Pseudomonas fluorescens; details: imidacloprid as cotton seed treatment; cited from earlier work

Molecule: Cc1c(COC(=O)[C@@H]2[C@H](/C=C(\Cl)C(F)(F)F)C2(C)C)cccc1-c1ccccc1 (racemic) [Bifenthrin, bifenthrin]
- bacterial populations when mixed with insecticide [1]: not negatively impacted
- bacterial populations when mixed with insecticide [2]: not negatively impacted
- bacterial populations when mixed with insecticide [3]: not negatively impacted
- Mean Mole Cricket Damage Rating ([4]; 0 days after treatment): 7.52a
- Mean Mole Cricket Damage Rating ([4]; 14 days after treatment): 7.95a
- Mean Mole Cricket Damage Rating ([4]; 21 days after treatment): 7.14a
- Mean Mole Cricket Damage Rating ([4]; 28 days after treatment (1 after re-treatment)): 1.71b
- Mean Mole Cricket Damage Rating ([4]; 33 days after treatment (5 after re-treatment)): 5.10ab
- Mean Mole Cricket Damage Rating ([4]; 42 days after treatment (15 after re-treatment)): 3.90ab
- Mean Mole Cricket Damage Rating ([4]; 46 days after treatment (19 after re-treatment)): 1.48b
- Mean Mole Cricket Damage Rating ([4]; 50 days after treatment (23 after re-treatment)): 1.86b
- Mean Mole Cricket Damage Rating ([4]; 56 days after treatment (29 after re-treatment)): 4.43b

Molecule: N#Cc1nn(-c2c(Cl)cc(C(F)(F)F)cc2Cl)c(N)c1[S+]([O-])C(F)(F)F (stereo not shown) [Fipronil, fipronil]
- bacterial populations when mixed with insecticide [1]: not negatively impacted
- bacterial populations when mixed with insecticide [2]: not negatively impacted
- bacterial populations when mixed with insecticide [3]: not negatively impacted

Molecule: O=[N+]([O-])NC1=NCCN1Cc1ccc(Cl)nc1 [Imidacloprid, imidacloprid]
- bacterial populations when mixed with insecticide [1]: not negatively impacted
- bacterial populations when mixed with insecticide [2]: not negatively impacted
- bacterial populations when mixed with insecticide [3]: not negatively impacted
- Pseudomonas fluorescens populations when mixed with pesticide or extract [5]: negatively impacted

Molecule: CC[C@H](C)[C@H]1O[C@]2(C=C[C@@H]1C)C[C@@H]1C[C@@H](C/C=C(\C)[C@@H](O[C@H]3C[C@H](OC)[C@@H](O[C@H]4C[C@H](OC)[C@@H](O)[C@H](C)O4)[C@H](C)O3)[C@@H](C)/C=C/C=C3\CO[C@@H]4[C@H](O)C(C)=C[C@@H](C(=O)O1)[C@]34O)O2 [avermectin]
- Pseudomonas fluorescens populations when mixed with pesticide or extract [5]: remained stable

Molecule: O=C1C2CC=CCC2C(=O)N1SC(Cl)(Cl)Cl (stereo not shown) [captan]
- Pseudomonas fluorescens populations when mixed with pesticide or extract [5]: negatively impacted

Molecule: COC(=O)Nc1nc2ccccc2[nH]1 [carbendazim]
- Pseudomonas fluorescens populations when mixed with pesticide or extract [5]: not negatively impacted

Molecule: CNC(=O)Oc1cccc2c1OC(C)(C)C2 [carbofuran]
- Pseudomonas fluorescens populations when mixed with pesticide or extract [5]: remained stable

Molecule: CCOP(=S)(OCC)Oc1nc(Cl)c(Cl)cc1Cl [chlorpyriphos]
- Pseudomonas fluorescens populations when mixed with pesticide or extract [5]: remained stable

Molecule: COC(=O)N(C(=O)N1CO[C@@]2(C(=O)OC)Cc3cc(Cl)ccc3C2=N1)c1ccc(OC(F)(F)F)cc1 [indoxacarb]
- Pseudomonas fluorescens populations when mixed with pesticide or extract [5]: not

Molecule: CCCC1COC(Cn2cncn2)(c2ccc(Cl)cc2Cl)O1 (stereo not shown) [propiconazole]
- Pseudomonas fluorescens populations when mixed with pesticide or extract [5]: negatively impacted

Molecule: CN(C)C(=S)SSC(=S)N(C)C [thiram]
- Pseudomonas fluorescens populations when mixed with pesticide or extract [5]: not negatively impacted

Molecule: mancozeb
- Pseudomonas fluorescens populations when mixed with pesticide or extract [5]: negatively impacted
